Results on 15 compounds are retold here after patent publication US20260317324A1, “BIFUNCTIONAL COMPOUNDS FOR DEGRADING BRAF VIA UBIQUITIN PROTEOSOME PATHWAY” (Nurix Therapeutics, Inc., priority 2023, published 2026).

The target of this test is T1, BRAF V600E (Homo sapiens, UniProt P15056, V600E).
T1 construct: endogenous C-terminal HiBiT fusion tag on BRAF V600E allele; endogenous in cells; host or cells: A375 clone 1F10 (CRISPR-Cas9 knock-in of the HiBiT tag; parental A375 from ATCC)
Briefly: BRAF HiBiT degradation assay, C-terminal HiBiT-tagged BRAF V600E A375 cells (clone 1F10), Nano-Glo HiBiT Lytic assay. Format: cell-based. The note with it: for Dmax: A-375. A digest of the protocol: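 A375 cells with CRISPR knock-in C-terminal HiBiT on endogenous BRAF V600E (clone 1F10) were seeded and cultured 24 h at 37 °C, then dosed with an 11-point half-log series (1 μM to 0.01 nM, duplicate, 0.2% DMSO). Lytic HiBiT luminescence gave % protein remaining; DC50 was the fitted concentration at 50%.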
(In general: The HiBiT peptide binds its large partner to form an active luciferase.)

[1] abbreviates: A375 (BRAF V600E), DC50 at 50%: fitted conc. at Y=50.
Setting [2] is: A375 (BRAF V600E), percentage protein degraded at maximal compound effect relative to DMSO.
[3] abbreviates: A375 (BRAF V600E, Class 1), DC50 at 50% degradation.
The mark [4] stands for this setting: A375 (BRAF V600E, Class 1), observed Dmax, % protein degraded relative to DMSO control.

T1 sequence (P15056 whole entry V600E, the tested form may be a part): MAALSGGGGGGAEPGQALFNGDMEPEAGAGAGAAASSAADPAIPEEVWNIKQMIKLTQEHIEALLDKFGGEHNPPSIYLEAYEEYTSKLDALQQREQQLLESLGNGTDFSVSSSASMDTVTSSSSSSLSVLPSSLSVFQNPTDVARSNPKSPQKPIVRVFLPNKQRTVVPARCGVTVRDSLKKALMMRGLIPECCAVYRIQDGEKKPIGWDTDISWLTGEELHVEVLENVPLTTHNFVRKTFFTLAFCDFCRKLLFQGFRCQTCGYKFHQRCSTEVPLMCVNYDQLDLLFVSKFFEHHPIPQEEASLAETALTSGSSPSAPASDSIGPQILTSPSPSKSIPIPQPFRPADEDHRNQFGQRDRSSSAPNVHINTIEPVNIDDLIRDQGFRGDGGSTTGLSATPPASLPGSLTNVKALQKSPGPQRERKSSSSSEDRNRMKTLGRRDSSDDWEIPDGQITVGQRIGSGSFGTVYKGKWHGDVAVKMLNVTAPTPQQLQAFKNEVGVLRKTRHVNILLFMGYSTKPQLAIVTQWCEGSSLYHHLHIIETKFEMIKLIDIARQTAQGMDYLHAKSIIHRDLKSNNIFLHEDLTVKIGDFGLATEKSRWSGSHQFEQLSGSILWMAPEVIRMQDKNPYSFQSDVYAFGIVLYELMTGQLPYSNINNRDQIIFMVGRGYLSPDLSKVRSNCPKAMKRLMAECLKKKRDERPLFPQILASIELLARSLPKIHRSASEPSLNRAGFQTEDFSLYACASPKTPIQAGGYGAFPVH

Turning to `CCCS(=O)(=O)Nc1cccc(-c2nc(C)sc2-c2ccnc(Nc3ccc(C4CCN(CC5CCN(c6ccc([C@H]7CCC(=O)NC7=O)cc6)CC5)CC4)cc3)n2)c1F` [Compound 63, N-[3-(5-{2-[(4-{1-[(1-{4-[(3R)-2,6-dioxopiperidin-3-yl]phenyl}piperidin-4-yl)methyl]piperidin-4-yl}phenyl)amino]pyrimidin-4-yl}-2-methyl-1,3-thiazol-4-yl)-2-fluorophenyl]propane-1-sulfonamide], the DC50 (in general, the midpoint of the concentration-degradation curve) under setting [1] was below 10 nM. Further, under setting [2], the Dmax (as a rule, the largest share of the target that was removed) is above 70%.

On to `CCCS(=O)(=O)Nc1cccc(-c2nc(C(C)(C)C)sc2-c2ccnc(Nc3cccc(C4CCN(CC[C@H]5CCN(c6ccc(C7CCC(=O)NC7=O)cn6)C5)CC4)c3)n2)c1F` (mixture of isomers) [Compound 74, N-{3-[2-tert-butyl-5-(2-{[3-(1-{2-[(3S)-1-{5-[(3RS)-2,6-dioxopiperidin-3-yl]pyridin-2-yl}pyrrolidin-3-yl]ethyl}piperidin-4-yl)phenyl]amino}pyrimidin-4-yl)-1,3-thiazol-4-yl]-2-fluorophenyl}propane-1-sulfonamide], for which, under setting [1], the DC50 lay in the range of 10 to 50 nM. For the same compound, under setting [2], the Dmax was in the range of 30 to 70%.

Compound `CCCS(=O)(=O)Nc1cccc(-c2nc(C)sc2-c2ccnc(Nc3ccc(N4CCN(CC5(F)CCN(c6ccc(C7CCC(=O)NC7=O)cc6)CC5)CC4)cc3)n2)c1F` (racemic) [Compound 31, Rac-N-[3-(5-{2-[(4-{4-[(1-{4-[(3R)-2,6-dioxopiperidin-3-yl]phenyl}-4-fluoropiperidin-4-yl)methyl]piperazin-1-yl}phenyl)amino]pyrimidin-4-yl}-2-methyl-1,3-thiazol-4-yl)-2-fluorophenyl]propane-1-sulfonamide] registered a DC50 under setting [1] of 10 to 50 nM. Under setting [2], this compound displayed a maximal degradation (Dmax) above 70%.

Regarding `CCCS(=O)(=O)Nc1cccc(-c2nc(C3(C)CCN(C(=O)CC4CCN(C5CCN(c6ccc7c(c6)C(=O)N(C6CCC(=O)NC6=O)C7=O)CC5)CC4)CC3)sc2-c2ccnc(N)n2)c1F` (racemic) [Compound 249, Rac-N-{3-[5-(2-aminopyrimidin-4-yl)-2-{1-[2-(1′-{2-[(3R)-2,6-dioxopiperidin-3-yl]-1,3-dioxo-2,3-dihydro-1H-isoindol-5-yl}-[1,4′-bipiperidin]-4-yl)acetyl]-4-methylpiperidin-4-yl}-1,3-thiazol-4-yl]-2-fluorophenyl}propane-1-sulfonamide], under setting [3], the DC50 fell in the range of 50 to 500 nM. The compound also had a Dmax under setting [4] of 30 to 70%.

Take `CCCS(=O)(=O)Nc1cccc(-c2nc(C(C)(C)C)sc2-c2ccnc(Nc3cccc(C4CCN(C(=O)CN5CCC(c6ccc(NC7CCC(=O)NC7=O)cc6)CC5)CC4)c3)n2)c1F` (racemic) [Compound 103, Rac-N-{3-[2-tert-butyl-5-(2-{[3-(1-{2-[4-(4-{[(3R)-2,6-dioxopiperidin-3-yl]amino}phenyl)piperidin-1-yl]acetyl}piperidin-4-yl)phenyl]amino}pyrimidin-4-yl)-1,3-thiazol-4-yl]-2-fluorophenyl}propane-1-sulfonamide]: the DC50 under setting [1] fell in the range of 10 to 50 nM. Besides, the Dmax under setting [2] is 30 to 70%.

`CCCS(=O)(=O)Nc1cccc(-c2nc(C3CCN(C(=O)[C@H]4CC[C@H](CN5CCc6cc(C7CCC(=O)NC7=O)ccc6C5)CC4)CC3)sc2-c2ccnc(N)n2)c1F` (mixture of isomers) [Compound 222, N-{3-[5-(2-aminopyrimidin-4-yl)-2-{1-[(1r,4r)-4-({6-[(3RS)-2,6-dioxopiperidin-3-yl]-1,2,3,4-tetrahydroisoquinolin-2-yl}methyl)cyclohexanecarbonyl]piperidin-4-yl}-1,3-thiazol-4-yl]-2-fluorophenyl}propane-1-sulfonamide] showed a DC50 under setting [1] above 500 nM. Further, the Dmax under setting [2] lay in the range of 30 to 70%.

Under setting [1], `CCCS(=O)(=O)Nc1cccc(-c2nc(C(C)(C)C)sc2-c2ccnc(Nc3cnn(CC4CCN(CC5CCN(c6ccc(C(=O)N[C@@H]7CCC(=O)NC7=O)nc6)CC5)CC4)c3)n2)c1F` [Compound 66, 5-(4-{[4-({4-[(4-{2-tert-butyl-4-[2-fluoro-3-(propane-1-sulfonamido)phenyl]-1,3-thiazol-5-yl}pyrimidin-2-yl)amino]-1H-pyrazol-1-yl}methyl)piperidin-1-yl]methyl}piperidin-1-yl)-N-[(3R)-2,6-dioxopiperidin-3-yl]pyridine-2-carboxamide] gave a DC50 below 10 nM. Further, under setting [2], the Dmax is above 70%.

Compound `CCCS(=O)(=O)Nc1cccc(-c2nc(C(C)(C)C)sc2-c2ccnc(NC3CC4(C3)CN(C(=O)CC3CCN(C5CCN(c6ccc7c(c6)C(=O)N(C6CCC(=O)NC6=O)C7=O)CC5)CC3)C4)n2)c1F` (racemic) [Compound 157, Rac-N-(3-{2-tert-butyl-5-[2-({2-[2-(1′-{2-[(3R)-2,6-dioxopiperidin-3-yl]-1,3-dioxo-2,3-dihydro-1H-isoindol-5-yl}-[1,4′-bipiperidin]-4-yl)acetyl]-2-azaspiro[3.3]heptan-6-yl}amino)pyrimidin-4-yl]-1,3-thiazol-4-yl}-2-fluorophenyl)propane-1-sulfonamide] displayed a DC50 under setting [1] of 50 to 500 nM. This compound also came in with a Dmax under setting [2] of 30 to 70%.

Take `CCCS(=O)(=O)Nc1cccc(-c2nc(C(C)(C)C)sc2-c2ccnc(Nc3ccc(C4CCN(C(=O)C5CCN(CC6CCN(c7ccc(C8CCC(=O)NC8=O)cn7)CC6)CC5)CC4)cc3)n2)c1F` (racemic) [Compound 175, Rac-N-{3-[2-tert-butyl-5-(2-{[4-(1-{1-[(1-{5-[(3R)-2,6-dioxopiperidin-3-yl]pyridin-2-yl}piperidin-4-yl)methyl]piperidine-4-carbonyl}piperidin-4-yl)phenyl]amino}pyrimidin-4-yl)-1,3-thiazol-4-yl]-2-fluorophenyl}propane-1-sulfonamide]: under setting [1], the DC50 is 10 to 50 nM. Under setting [2], this compound yielded a Dmax of 30 to 70%.

`CCCS(=O)(=O)Nc1cccc(-c2cn(-c3ccc(C(=O)N4CCN(CC5CCN(c6ccc([C@@H]7CCC(=O)NC7=O)cc6)CC5)CC4)cc3)nc2-c2ccncc2)c1F` [Compound 12, N-{3-[1-(4-{4-[(1-{4-[(3S)-2,6-dioxopiperidin-3-yl]phenyl}piperidin-4-yl)methyl]piperazine-1-carbonyl}phenyl)-3-(pyridin-4-yl)-1H-pyrazol-4-yl]-2-fluorophenyl}propane-1-sulfonamide] gave a DC50 under setting [1] of 50 to 500 nM. In addition, under setting [2], the Dmax was in the range of 30 to 70%.

Regarding `CCCS(=O)(=O)Nc1cccc(-c2nc(C(C)(C)C)sc2-c2ccnc(N[C@H]3CC[C@H](CN4CCN(CC5CCN(c6ccc([C@@H]7CCC(=O)NC7=O)cc6)CC5)CC4)CC3)n2)c1F` [Compound 139, N-{3-[2-tert-butyl-5-(2-{[(1r,4r)-4-({4-[(1-{4-[(3S)-2,6-dioxopiperidin-3-yl]phenyl}piperidin-4-yl)methyl]piperazin-1-yl}methyl)cyclohexyl]amino}pyrimidin-4-yl)-1,3-thiazol-4-yl]-2-fluorophenyl}propane-1-sulfonamide], the DC50 under setting [1] was 10 to 50 nM. The Dmax under setting [2] lay within 30 to 70%.

As to `CCCS(=O)(=O)Nc1cccc(-c2nc(C3CCN(C(=O)C4(C)CCN(C(=O)C5CCN(c6ccc(C7CCC(=O)NC7=O)cc6)CC5)CC4)CC3)sc2-c2ccncn2)c1F` (racemic) [Compound 178, Rac-N-[3-(2-{1-[1-(1-{4-[(3R)-2,6-dioxopiperidin-3-yl]phenyl}piperidine-4-carbonyl)-4-methylpiperidine-4-carbonyl]piperidin-4-yl}-5-(pyrimidin-4-yl)-1,3-thiazol-4-yl)-2-fluorophenyl]propane-1-sulfonamide], the DC50 under setting [1] is below 10 nM. Under setting [2], this compound gave a Dmax above 70%.

On to `CCCS(=O)(=O)Nc1cccc(-c2nc(C(C)(C)C)sc2-c2ccnc(Nc3ccc(C4CCN(C(=O)COc5ccc6c(c5)C(=O)N(C5CCC(=O)NC5=O)C6=O)CC4)cc3)n2)c1F` (racemic) [Compound 176, Rac-N-[3-(2-tert-butyl-5-{2-[(4-{1-[2-({2-[(3R)-2,6-dioxopiperidin-3-yl]-1,3-dioxo-2,3-dihydro-1H-isoindol-5-yl}oxy)acetyl]piperidin-4-yl}phenyl)amino]pyrimidin-4-yl}-1,3-thiazol-4-yl)-2-fluorophenyl]propane-1-sulfonamide], for which the DC50 under setting [1] was in the range of 10 to 50 nM. Under setting [2], this compound came in with a Dmax of 30 to 70%.

For the compound `O=C1CCC(c2ccc(N3CCC(CN4CCN(c5cnc(-n6cc(-c7cc(F)cc(NS(=O)(=O)N8CCCC8)c7F)c(-c7ccncc7)n6)nc5)CC4)CC3)nc2)C(=O)N1` (racemic) [Compound 343, Rac-N-{3-[1-(5-{4-[(1-{5-[(3R)-2,6-dioxopiperidin-3-yl]pyridin-2-yl}piperidin-4-yl)methyl]piperazin-1-yl}pyrimidin-2-yl)-3-(pyridin-4-yl)-1H-pyrazol-4-yl]-2,5-difluorophenyl}pyrrolidine-1-sulfonamide], the DC50 under setting [3] was below 10 nM. The compound further displayed a Dmax under setting [4] above 70%.

Compound `CCCS(=O)(=O)Nc1cccc(-c2nc(-c3ccc(C4CCN(C(=O)CC5CCN(c6ccc(NC7CCC(=O)NC7=O)cc6)CC5)CC4)cc3)sc2-c2ccnc(N)n2)c1F` (racemic) [Compound 185, Rac-N-{3-[5-(2-aminopyrimidin-4-yl)-2-[4-(1-{2-[1-(4-{[(3R)-2,6-dioxopiperidin-3-yl]amino}phenyl)piperidin-4-yl]acetyl}piperidin-4-yl)phenyl]-1,3-thiazol-4-yl]-2-fluorophenyl}propane-1-sulfonamide] displayed a DC50 under setting [1] of 10 to 50 nM. This compound gave a Dmax under setting [2] of 30 to 70%.
